# Assay results published in patent publication US20230322761A1, “DEGRADATION OF BRUTON'S TYROSINE KINASE (BTK) BY CONJUGATION OF BTK INHIBITORS WITH E3 LIGASE LIGAND AND METHODS OF USE” (BEIGENE, LTD., priority 2020, published 2023).
# Biological target: T1, BTK (Homo sapiens, UniProt Q06187)
# T1 construct: endogenous in cells; host or cells: TMD-8 cells
# Assay: BTK degradation in TMD-8 cells, HTRF assay after 6 h treatment
# Type: cell-based
# Settings: IC50 (DC50) of BTK degradation
# In short: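 Remaining BTK was quantified by HTRF in lysates of TMD-8 cells after 6 h exposure to an 8-point, 6-fold compound series (500× stocks in DMSO starting at 1 mM; 0.2% DMSO). Lysis 30 min, antibodies overnight at room temperature, ratio read at 665/620 nm; DC50 fitted with a four-parameter logistic equation.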
# T1 sequence (Q06187 whole entry): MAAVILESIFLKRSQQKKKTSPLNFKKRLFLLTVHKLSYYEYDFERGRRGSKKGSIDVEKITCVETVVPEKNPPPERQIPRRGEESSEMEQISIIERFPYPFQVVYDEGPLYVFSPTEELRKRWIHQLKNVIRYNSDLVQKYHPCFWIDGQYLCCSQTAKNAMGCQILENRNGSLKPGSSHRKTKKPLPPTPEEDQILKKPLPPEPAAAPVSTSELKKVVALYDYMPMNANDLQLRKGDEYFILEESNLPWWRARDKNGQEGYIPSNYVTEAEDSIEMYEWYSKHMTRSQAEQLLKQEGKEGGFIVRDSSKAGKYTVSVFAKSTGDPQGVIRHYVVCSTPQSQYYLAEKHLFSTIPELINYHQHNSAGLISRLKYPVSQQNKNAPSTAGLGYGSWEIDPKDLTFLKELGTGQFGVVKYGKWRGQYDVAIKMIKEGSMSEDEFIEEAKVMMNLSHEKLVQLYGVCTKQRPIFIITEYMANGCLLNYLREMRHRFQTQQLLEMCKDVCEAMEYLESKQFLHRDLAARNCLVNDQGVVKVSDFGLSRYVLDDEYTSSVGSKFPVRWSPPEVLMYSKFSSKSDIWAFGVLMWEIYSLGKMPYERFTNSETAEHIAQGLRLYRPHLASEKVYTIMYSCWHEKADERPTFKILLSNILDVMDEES
row,SMILES,DC50 [nM]
1,"Cc1cc(-c2n[nH]c3ncc(-c4ccc(N5CCN(CC6CCN(c7ccc(N8CCC(=O)NC8=O)cc7)CC6)CC5)cc4)cc23)c(F)cc1[C@@H](C)NC(=O)c1noc(C(C)(C)C)n1 [Example 44, (R)-5-(tert-butyl)-N-(1-(4-(5-(4-(4-((1-(4-(2,4-dioxotetrahydropyrimidin-1(2H)-yl)phenyl)piperidin-4-yl)methyl)piperazin-1-yl)phenyl)-1H-pyrazolo[3,4-b]pyridin-3-yl)-5-fluoro-2-methylphenyl)ethyl)-1,2,4-oxadiazole-3-carboxamide]",6.02
2,"COc1cc(CCN2CCN(c3ccc(-c4cnc5[nH]nc(-c6ccc([C@@H](C)NC(=O)c7noc(C(C)(C)C)n7)c(C)c6)c5c4)cc3)CC2)ccc1C1CCC(=O)NC1=O (stereo partly drawn) [Example 137, 5-(tert-butyl)-N-((1R)-1-(4-(5-(4-(4-(4-(2,6-dioxopiperidin-3-yl)-3-methoxyphenethyl)piperazin-1-yl)phenyl)-1H-pyrazolo[3,4-b]pyridin-3-yl)-2-methylphenyl)ethyl)-1,2,4-oxadiazole-3-carboxamide]",5.23
3,"Cc1cc(N2CCC(CCN3CCN(c4ccc(-c5cnc6[nH]nc(-c7ccc([C@@H](C)NC(=O)c8noc(C(C)(C)C)n8)c(C)c7)c6c5)cc4)CC3)CC2)ccc1C1CCC(=O)NC1=O (stereo partly drawn) [Example 168, 5-(tert-butyl)-N-((1R)-1-(4-(5-(4-(4-(2-(1-(4-(2,6-dioxopiperidin-3-yl)-3-methylphenyl)piperidin-4-yl)ethyl)piperazin-1-yl)phenyl)-1H-pyrazolo[3,4-b]pyridin-3-yl)-2-methylphenyl)ethyl)-1,2,4-oxadiazole-3-carboxamide]",15.6
4,"Cc1cc(-c2n[nH]c3ncc(-c4ccc(N5CCN(CC6CCN(c7ccc(N8CCC(=O)NC8=O)c(F)c7)CC6)CC5)cc4)cc23)ccc1[C@@H](C)NC(=O)c1noc(C(C)(C)C)n1 [Example 38, (R)-5-(tert-butyl)-N-(1-(4-(5-(4-(4-((1-(4-(2,4-dioxotetrahydropyrimidin-1(2H)-yl)-3-fluorophenyl)piperidin-4-yl)methyl)piperazin-1-yl)phenyl)-1H-pyrazolo[3,4-b]pyridin-3-yl)-2-methylphenyl)ethyl)-1,2,4-oxadiazole-3-carboxamide]",3.2
5,"Cc1cc(-c2n[nH]c3ncc(-c4ccc(N5CCN(CC(F)(F)c6ccc(C7CCC(=O)NC7=O)cc6)CC5)cc4)cc23)ccc1[C@@H](C)NC(=O)c1noc(C(C)(C)C)n1 (stereo partly drawn) [Example 175, 5-(tert-butyl)-N-((1R)-1-(4-(5-(4-(4-(2-(4-(2,6-dioxopiperidin-3-yl)phenyl)-2,2-difluoroethyl)piperazin-1-yl)phenyl)-1H-pyrazolo[3,4-b]pyridin-3-yl)-2-methylphenyl)ethyl)-1,2,4-oxadiazole-3-carboxamide]",8.39
6,"Cc1cc(-c2n[nH]c3ncc(-c4ccc(N5CCN(CC(F)(F)c6ccc(C7CCC(=O)NC7=O)cn6)CC5)cc4)cc23)ccc1[C@@H](C)NC(=O)c1noc(C(C)(C)C)n1 (stereo partly drawn) [Example 193, 5-(tert-butyl)-N-((1R)-1-(4-(5-(4-(4-(2-(5-(2,6-dioxopiperidin-3-yl)pyridin-2-yl)-2,2-difluoroethyl)piperazin-1-yl)phenyl)-1H-pyrazolo[3,4-b]pyridin-3-yl)-2-methylphenyl)ethyl)-1,2,4-oxadiazole-3-carboxamide]",3.06
7,"Cc1cc(-c2n[nH]c3ncc(-c4ccc(N5CCN(C6CC(c7ccc(C8CCC(=O)NC8=O)cc7)C6)CC5)cc4)cc23)ccc1[C@@H](C)NC(=O)c1noc(C(C)(C)C)n1 (stereo partly drawn) [Example 214, 5-(tert-butyl)-N-((1R)-1-(4-(5-(4-(4-((1s,3s)-3-(4-(2,6-dioxopiperidin-3-yl)phenyl)cyclobutyl)piperazin-1-yl)phenyl)-1H-pyrazolo[3,4-b]pyridin-3-yl)-2-methylphenyl)ethyl)-1,2,4-oxadiazole-3-carboxamide]",1.3
8,"Cc1cc(-c2n[nH]c3ncc(-c4ccc(N5CCN(Cc6ccc(C7CCC(=O)NC7=O)c(F)c6)CC5)cc4)cc23)ccc1[C@@H](C)NC(=O)c1nc(C(C)(C)C)no1 (stereo partly drawn) [Example 215, 3-(tert-butyl)-N-((1R)-1-(4-(5-(4-(4-(4-(2,6-dioxopiperidin-3-yl)-3-fluorobenzyl)piperazin-1-yl)phenyl)-1H-pyrazolo[3,4-b]pyridin-3-yl)-2-methylphenyl)ethyl)-1,2,4-oxadiazole-5-carboxamide]",11.8
9,"Cc1cc(-c2n[nH]c3ncc(-c4ccc(N5CCN(CCc6ccc(N7CCC(=O)NC7=O)cc6)CC5)cc4)cc23)ccc1[C@@H](C)NC(=O)c1noc(C(C)(C)C)n1 [Example 129, (R)-5-(tert-butyl)-N-(1-(4-(5-(4-(4-(4-(2,4-dioxotetrahydropyrimidin-1(2H)-yl)phenethyl)piperazin-1-yl)phenyl)-1H-pyrazolo[3,4-b]pyridin-3-yl)-2-methylphenyl)ethyl)-1,2,4-oxadiazole-3-carboxamide]",3.73
10,"Cc1cc(CCN2CCN(c3ccc(-c4cnc5[nH]nc(-c6ccc([C@@H](C)NC(=O)c7noc(C(C)(C)C)n7)c(CO)c6)c5c4)cc3)CC2)ncc1C1CCC(=O)NC1=O (stereo partly drawn) [Example 149, 5-(tert-butyl)-N-((1R)-1-(4-(5-(4-(4-(2-(5-(2,6-dioxopiperidin-3-yl)-4-methylpyridin-2-yl)ethyl)piperazin-1-yl)phenyl)-1H-pyrazolo[3,4-b]pyridin-3-yl)-2-(hydroxymethyl)phenyl)ethyl)-1,2,4-oxadiazole-3-carboxamide]",1.6
11,"Cc1cc(-c2n[nH]c3ncc(-c4ccc(N5CCN(CCc6ccc(C7CCC(=O)NC7=O)c(F)c6)CC5)cc4)cc23)ccc1[C@@H](C)NC(=O)c1nc(C(C)(C)C)no1 (stereo partly drawn) [Example 34, 3-(tert-butyl)-N-((1R)-1-(4-(5-(4-(4-(4-(2,6-dioxopiperidin-3-yl)-3-fluorophenethyl)piperazin-1-yl)phenyl)-1H-pyrazolo[3,4-b]pyridin-3-yl)-2-methylphenyl)ethyl)-1,2,4-oxadiazole-5-carboxamide]",3.39
12,"Cc1cc(-c2n[nH]c3ncc(-c4ccc(N5CC6CC5CN6CCc5ccc(C6CCC(=O)NC6=O)c(C)n5)cn4)cc23)ccc1[C@@H](C)NC(=O)c1noc(C(C)(C)C)n1 (stereo partly drawn) [Example 170, 5-(tert-butyl)-N-((1R)-1-(4-(5-(5-(5-(2-(5-(2,6-dioxopiperidin-3-yl)-6-methylpyridin-2-yl)ethyl)-2,5-diazabicyclo[2.2.1]heptan-2-yl)pyridin-2-yl)-1H-pyrazolo[3,4-b]pyridin-3-yl)-2-methylphenyl)ethyl)-1,2,4-oxadiazole-3-carboxamide]",4.77
13,"CC(C)(C)c1noc(C(=O)NCc2ccc(-c3n[nH]c4ncc(-c5ccc(C6CCN(CCc7ccc(N8CCC(=O)NC8=O)cc7)CC6)cc5)cc34)cc2F)n1 [Example 13, 3-(tert-butyl)-N-(4-(5-(4-(1-(4-(2,4-dioxotetrahydropyrimidin-1(2H)-yl)phenethyl)piperidin-4-yl)phenyl)-1H-pyrazolo[3,4-b]pyridin-3-yl)-2-fluorobenzyl)-1,2,4-oxadiazole-5-carboxamide]",25.7

# Same assay, conditions: TMD8, maximum percentage of inhibition (degradation)
row,SMILES,Dmax [%]
1,"Cc1cc(-c2n[nH]c3ncc(-c4ccc(N5CCN(CCc6ccc(C7CCC(=O)NC7=O)c(F)c6)CC5)cc4)cc23)ccc1[C@@H](C)NC(=O)c1nc(C(C)(C)C)no1 (stereo partly drawn) [Example 34, 3-(tert-butyl)-N-((1R)-1-(4-(5-(4-(4-(4-(2,6-dioxopiperidin-3-yl)-3-fluorophenethyl)piperazin-1-yl)phenyl)-1H-pyrazolo[3,4-b]pyridin-3-yl)-2-methylphenyl)ethyl)-1,2,4-oxadiazole-5-carboxamide]",95.6
2,"CC(C)(C)c1noc(C(=O)NCc2ccc(-c3n[nH]c4ncc(-c5ccc(C6CCN(CCc7ccc(N8CCC(=O)NC8=O)cc7)CC6)cc5)cc34)cc2F)n1 [Example 13, 3-(tert-butyl)-N-(4-(5-(4-(1-(4-(2,4-dioxotetrahydropyrimidin-1(2H)-yl)phenethyl)piperidin-4-yl)phenyl)-1H-pyrazolo[3,4-b]pyridin-3-yl)-2-fluorobenzyl)-1,2,4-oxadiazole-5-carboxamide]",93
